# Details: human gut metagenome, 24 h, 2 µM
# Also: call rule not given here.
row,SMILES,Bacterial Biotransformation
1,OCCN(CCO)c1nc(N2CCCCC2)c2nc(N(CCO)CCO)nc(N3CCCCC3)c2n1 [DIPYRIDAMOLE],Compound metabolized
2,COc1cc2nc(N3CCN(C(=O)C4COc5ccccc5O4)CC3)nc(N)c2cc1OC.CS(=O)(=O)O (stereo not given) [DOXAZOSIN MESYLATE],Compound metabolized

# Test: (§1) The drug is tested on Z-029 corresponding to rat gut metagenome with ENA study accession number: PRJEB37062 and ENA sample accession number: ERS12561828 for biotransformation under anaerobic condition. The drug concentrations were measured over 9 timepoints collected between 0 and 24 hours of incubation by liquid-chromatography-coupled mass spectrometry (LC–MS)
# Details: 2 µM
row,SMILES,Bacterial Biotransformation
1,OCCN(CCO)c1nc(N2CCCCC2)c2nc(N(CCO)CCO)nc(N3CCCCC3)c2n1 [DIPYRIDAMOLE],Compound NOT metabolized
2,COc1cc2nc(N3CCN(C(=O)C4COc5ccccc5O4)CC3)nc(N)c2cc1OC.CS(=O)(=O)O (stereo not given) [DOXAZOSIN MESYLATE],Compound NOT metabolized

# Test: as §1, with “on Z-002” for “on Z-029”, “to rabbit” for “to rat”, “number: ERS12561802” for “number: ERS12561828”
# Details: 2 µM
row,SMILES,Bacterial Biotransformation
1,OCCN(CCO)c1nc(N2CCCCC2)c2nc(N(CCO)CCO)nc(N3CCCCC3)c2n1 [DIPYRIDAMOLE],Compound metabolized
2,COc1cc2nc(N3CCN(C(=O)C4COc5ccccc5O4)CC3)nc(N)c2cc1OC.CS(=O)(=O)O (stereo not given) [DOXAZOSIN MESYLATE],Compound NOT metabolized

# Details: human gut metagenome, 24 h, 2 µM
# Remark: another data set of the same source
row,SMILES,Bacterial Biotransformation
1,OCCN(CCO)c1nc(N2CCCCC2)c2nc(N(CCO)CCO)nc(N3CCCCC3)c2n1 [DIPYRIDAMOLE],Compound NOT metabolized
2,COc1cc2nc(N3CCN(C(=O)C4COc5ccccc5O4)CC3)nc(N)c2cc1OC.CS(=O)(=O)O (stereo not given) [DOXAZOSIN MESYLATE],Compound metabolized

# Details: human gut metagenome, 24 h, 2 µM
# Remark: another data set of the same source
row,SMILES,Bacterial Biotransformation
1,OCCN(CCO)c1nc(N2CCCCC2)c2nc(N(CCO)CCO)nc(N3CCCCC3)c2n1 [DIPYRIDAMOLE],Compound metabolized
2,COc1cc2nc(N3CCN(C(=O)C4COc5ccccc5O4)CC3)nc(N)c2cc1OC.CS(=O)(=O)O (stereo not given) [DOXAZOSIN MESYLATE],Compound NOT metabolized

# Test: as §1, with “on WLS-098” for “on Z-029”, “to human” for “to rat”, “number: ERS12561754” for “number: ERS12561828”
# Details: 2 µM
row,SMILES,Bacterial Biotransformation
1,OCCN(CCO)c1nc(N2CCCCC2)c2nc(N(CCO)CCO)nc(N3CCCCC3)c2n1 [DIPYRIDAMOLE],Compound metabolized
2,COc1cc2nc(N3CCN(C(=O)C4COc5ccccc5O4)CC3)nc(N)c2cc1OC.CS(=O)(=O)O (stereo not given) [DOXAZOSIN MESYLATE],Compound metabolized

# Test: as §1, with “on Z-016” for “on Z-029”, “to mouse” for “to rat”, “number: ERS12561815” for “number: ERS12561828”
# Details: 2 µM
row,SMILES,Bacterial Biotransformation
1,OCCN(CCO)c1nc(N2CCCCC2)c2nc(N(CCO)CCO)nc(N3CCCCC3)c2n1 [DIPYRIDAMOLE],Compound NOT metabolized
2,COc1cc2nc(N3CCN(C(=O)C4COc5ccccc5O4)CC3)nc(N)c2cc1OC.CS(=O)(=O)O (stereo not given) [DOXAZOSIN MESYLATE],Compound NOT metabolized

# Test: as §1, with “Z-027” for “Z-029”, “to” for “to rat gut”, “ERS12561826” for “ERS12561828”
# Details: 2 µM
row,SMILES,Bacterial Biotransformation
1,OCCN(CCO)c1nc(N2CCCCC2)c2nc(N(CCO)CCO)nc(N3CCCCC3)c2n1 [DIPYRIDAMOLE],Compound metabolized
2,COc1cc2nc(N3CCN(C(=O)C4COc5ccccc5O4)CC3)nc(N)c2cc1OC.CS(=O)(=O)O (stereo not given) [DOXAZOSIN MESYLATE],Compound NOT metabolized

# Details: human gut metagenome, 24 h, 2 µM
# Remark: another data set of the same source
row,SMILES,Bacterial Biotransformation
1,OCCN(CCO)c1nc(N2CCCCC2)c2nc(N(CCO)CCO)nc(N3CCCCC3)c2n1 [DIPYRIDAMOLE],Compound NOT metabolized
2,COc1cc2nc(N3CCN(C(=O)C4COc5ccccc5O4)CC3)nc(N)c2cc1OC.CS(=O)(=O)O (stereo not given) [DOXAZOSIN MESYLATE],Compound NOT metabolized

# Details: human gut metagenome, 24 h, 2 µM
# Remark: another data set of the same source
row,SMILES,Bacterial Biotransformation
1,OCCN(CCO)c1nc(N2CCCCC2)c2nc(N(CCO)CCO)nc(N3CCCCC3)c2n1 [DIPYRIDAMOLE],Compound metabolized
2,COc1cc2nc(N3CCN(C(=O)C4COc5ccccc5O4)CC3)nc(N)c2cc1OC.CS(=O)(=O)O (stereo not given) [DOXAZOSIN MESYLATE],Compound metabolized

# Test: as §1, with “on WLS-240” for “on Z-029”, “to human” for “to rat”, “number: ERS12561773” for “number: ERS12561828”
# Details: 2 µM
row,SMILES,Bacterial Biotransformation
1,OCCN(CCO)c1nc(N2CCCCC2)c2nc(N(CCO)CCO)nc(N3CCCCC3)c2n1 [DIPYRIDAMOLE],Compound metabolized
2,COc1cc2nc(N3CCN(C(=O)C4COc5ccccc5O4)CC3)nc(N)c2cc1OC.CS(=O)(=O)O (stereo not given) [DOXAZOSIN MESYLATE],Compound metabolized

# Test: as §1, with “on Z-024” for “on Z-029”, “to pig” for “to rat”, “number: ERS12561823” for “number: ERS12561828”
# Details: 2 µM
row,SMILES,Bacterial Biotransformation
1,OCCN(CCO)c1nc(N2CCCCC2)c2nc(N(CCO)CCO)nc(N3CCCCC3)c2n1 [DIPYRIDAMOLE],Compound metabolized
2,COc1cc2nc(N3CCN(C(=O)C4COc5ccccc5O4)CC3)nc(N)c2cc1OC.CS(=O)(=O)O (stereo not given) [DOXAZOSIN MESYLATE],Compound NOT metabolized

# Details: human gut metagenome, 24 h, 2 µM
# Remark: another data set of the same source
row,SMILES,Bacterial Biotransformation
1,OCCN(CCO)c1nc(N2CCCCC2)c2nc(N(CCO)CCO)nc(N3CCCCC3)c2n1 [DIPYRIDAMOLE],Compound metabolized
2,COc1cc2nc(N3CCN(C(=O)C4COc5ccccc5O4)CC3)nc(N)c2cc1OC.CS(=O)(=O)O (stereo not given) [DOXAZOSIN MESYLATE],Compound metabolized

# Test: as §1, with “on WLS-069” for “on Z-029”, “to human” for “to rat”, “number: ERS12561748” for “number: ERS12561828”
# Details: 2 µM
row,SMILES,Bacterial Biotransformation
1,OCCN(CCO)c1nc(N2CCCCC2)c2nc(N(CCO)CCO)nc(N3CCCCC3)c2n1 [DIPYRIDAMOLE],Compound metabolized
2,COc1cc2nc(N3CCN(C(=O)C4COc5ccccc5O4)CC3)nc(N)c2cc1OC.CS(=O)(=O)O (stereo not given) [DOXAZOSIN MESYLATE],Compound metabolized

# Details: human gut metagenome, 24 h, 2 µM
# Remark: another data set of the same source
row,SMILES,Bacterial Biotransformation
1,OCCN(CCO)c1nc(N2CCCCC2)c2nc(N(CCO)CCO)nc(N3CCCCC3)c2n1 [DIPYRIDAMOLE],Compound metabolized
2,COc1cc2nc(N3CCN(C(=O)C4COc5ccccc5O4)CC3)nc(N)c2cc1OC.CS(=O)(=O)O (stereo not given) [DOXAZOSIN MESYLATE],Compound NOT metabolized

# Test: as §1, with “Z-012” for “Z-029”, “to” for “to rat gut”, “ERS12561812” for “ERS12561828”
# Details: 2 µM
row,SMILES,Bacterial Biotransformation
1,OCCN(CCO)c1nc(N2CCCCC2)c2nc(N(CCO)CCO)nc(N3CCCCC3)c2n1 [DIPYRIDAMOLE],Compound NOT metabolized
2,COc1cc2nc(N3CCN(C(=O)C4COc5ccccc5O4)CC3)nc(N)c2cc1OC.CS(=O)(=O)O (stereo not given) [DOXAZOSIN MESYLATE],Compound NOT metabolized

# Details: human gut metagenome, 24 h, 2 µM
# Remark: another data set of the same source
row,SMILES,Bacterial Biotransformation
1,OCCN(CCO)c1nc(N2CCCCC2)c2nc(N(CCO)CCO)nc(N3CCCCC3)c2n1 [DIPYRIDAMOLE],Compound NOT metabolized
2,COc1cc2nc(N3CCN(C(=O)C4COc5ccccc5O4)CC3)nc(N)c2cc1OC.CS(=O)(=O)O (stereo not given) [DOXAZOSIN MESYLATE],Compound NOT metabolized

# Test: as §1, with “on Z-011” for “on Z-029”, “to mouse” for “to rat”, “number: ERS12561811” for “number: ERS12561828”
# Details: 2 µM
row,SMILES,Bacterial Biotransformation
1,OCCN(CCO)c1nc(N2CCCCC2)c2nc(N(CCO)CCO)nc(N3CCCCC3)c2n1 [DIPYRIDAMOLE],Compound NOT metabolized
2,COc1cc2nc(N3CCN(C(=O)C4COc5ccccc5O4)CC3)nc(N)c2cc1OC.CS(=O)(=O)O (stereo not given) [DOXAZOSIN MESYLATE],Compound NOT metabolized

# Test: as §1, with “on WLS-038” for “on Z-029”, “to human” for “to rat”, “number: ERS12561745” for “number: ERS12561828”
# Details: 2 µM
row,SMILES,Bacterial Biotransformation
1,OCCN(CCO)c1nc(N2CCCCC2)c2nc(N(CCO)CCO)nc(N3CCCCC3)c2n1 [DIPYRIDAMOLE],Compound NOT metabolized
2,COc1cc2nc(N3CCN(C(=O)C4COc5ccccc5O4)CC3)nc(N)c2cc1OC.CS(=O)(=O)O (stereo not given) [DOXAZOSIN MESYLATE],Compound metabolized

# Details: human gut metagenome, 24 h, 2 µM
# Remark: another data set of the same source
row,SMILES,Bacterial Biotransformation
1,OCCN(CCO)c1nc(N2CCCCC2)c2nc(N(CCO)CCO)nc(N3CCCCC3)c2n1 [DIPYRIDAMOLE],Compound metabolized
2,COc1cc2nc(N3CCN(C(=O)C4COc5ccccc5O4)CC3)nc(N)c2cc1OC.CS(=O)(=O)O (stereo not given) [DOXAZOSIN MESYLATE],Compound metabolized
